Test results published in patent US20260083750A1, “SMALL MOLECULE INHIBITORS OF KRAS PROTEINS” (MERCK SHARP & DOHME LLC, priority 2022, published 2026).

Key:
KRAS-G12D = target: T1, KRAS-G12D (Homo sapiens, UniProt P01116, G12D); test: SOS-catalyzed nucleotide exchange assay (Procedure A, TR-FRET); format: biochemical; details: 60 min preincubation, SOS + GTP, read-out: KRAS G12D GNE IC50
T1 construct: N-terminal biotin-acceptor peptide […]
Excerpt: (§1) Procedure for SOS-Catalyzed Nucleotide Exchange Assay for KRAS-G12C/D/V, G13D, HRAS, and NRAS (Procedure A)
(§2) Recombinant KRAS-G12C protein used in this assay has an additional triple mutation (C51S/C80L/C118S), whereas KRAS-G12D/V, G13D, HRAS and NRAS are in context of their WT protein sequence background. Specifically, the SOS-catalyzed nucleotide exchange assay utilizes a preformed TR-FRET complex containing a specific biotinylated RAS protein (KRAS-G12C/V/D, G13D, HRAS, NRAS; described above) with Bodipy-GDP, and Terbium-streptavidin. Compounds are preincubated with this complex for 60 minutes. Subsequently, recombinant human SOS protein and unlabeled GTP are added to initiate the exchange reaction. Small molecule inhibitors stabilize the Bodipy-GDP complex whereas the untreated protein rapidly exchanges Bodipy-GDP for unlabeled GTP resulting in reduced TR-FRET signal.
(§3) To assemble the preformed TR-FRET complexes, each biotinylated RAS protein is diluted to 2 μM in an EDTA Buffer (20 mM HEPES pH 7.5, 50 mM sodium chloride, 10 mM EDTA, and 0.01% Tween) and incubated at room temperature for one hour. This mixture is then further diluted to 90 nM in an Assay Buffer (20 mM HEPES pH 7.5, 150 mM sodium chloride, 10 mM magnesium chloride, and 0.005% Tween) containing 15 nM of Terbium-Streptavidin (Invitrogen, catalog #PV3577) and 900 nM of Bodipy-GDP (Invitrogen, catalog #G22360) and incubated at room temperature for six hours. It should be noted that this preformed TR-FRET complex for each of the RAS protein were made ahead of time, aliquoted and stored at −80° C. until the day of the experiment.
(§4) Each test compound (10 mM stock in DMSO) is diluted in DMSO to make a final-10-point, 3-fold dilution and is acoustically dispensed into a 384-well assay plate (Corning, catalog #3820) using an Echo 550 (Labcyte). Each well of the assay plate receives 3 μL of a specific 3× RAS preformed TR-FRET complex and 3 μL of Assay Buffer and is incubated at room temperature for 60 minutes (preincubation time). Each well then receives 3 μL of 3× recombinant human SOS protein and GTP (Sigma, G8877) in Assay Buffer and is incubated at room temperature for 30 minutes (G13D), 60 minutes (G12C/D, H/NRAS) or 90 minutes for G12V. The final reaction in each well of […] consists of 3 mM GTP, specific Ras and SOS proteins in the following concentrations: KRAS-G12C/SOS=3 nM/40 nM, KRAS-G12D/SOS=1 nM/40 nM, KRAS-G12V/SOS=1.25 nM/160 nM, KRAS-G13D/SOS=1.25 nM/0 nM, HRAS & NRAS=1.25 nM/40 nM.
(§5) The time-resolved fluorescence resonance energy transfer (TR-FRET) signal is measured on an Envision (PerkinElmer) plate reader: Excitation filter=340 nm; emission1=495 nm; emission2=520 nm; dichroic mirror=D400/D505; delay time=[…]. The signal of each well is determined as the ratio of the emission at 520 nm to that at 495 nm. […] The apparent effect as a function of compound concentration is fit to a four-parameter logistic equation.

KRAS-G12V = target: T2, KRAS-G12V (Homo sapiens, UniProt P01116, G12V); test: as above; format: biochemical; details: 60 min preincubation, SOS + GTP, read-out: KRAS G12V GNE IC50
T2 construct: N-terminal biotin-acceptor peptide […]
Excerpt: as §1, §2, §3, §4, §5

[1] = tested on: PANC08.13 cells (homozygous KRAS-G12D activating mutation); test: Cellular phospho-ERK assay in G12D cell line; format: cell-based; details: Homo sapiens, PANC-08-13, 2 hours compound incubation, ratio of p-ERK vs. total ERK, read-out: PANC 0813 pERK IC50
Method: Procedure for Cellular Phospho-ERK Assay in G12D and G12V Cell Lines
PANC08.13 cells (ATCC® CRL-2551™), containing homozygous KRAS-G12D activating mutation, were cultured in growth medium made of RPMI1640-GlutaMAX™—I (ThermoFisher Scientific 61870) containing 15% heat inactivated fetal bovine serum (ThermoFisher Scientific 10091148)). SW620 cells (ATCC® […]), containing homozygous KRAS-G12V activating mutation, were cultured in growth medium that contains RPMI 1640-GlutaMAX™—I (ThermoFisher Scientific 61870) containing 10% heat inactivated fetal bovine serum (ThermoFisher Scientific 10091148).
Cells for the assay were harvested in growth medium after TrypLE (ThermoFisher scientific 12604021) digestion and were seeded in a 384-well collagen coated cell culture plate (Corning 356702) at a density of 10,000-15,000 cells/20 uL/well, and incubated at 37° C., 5% CO2 overnight. The compound (with 10 mM stock concentration) dose-response titrations were prepared [30 μM final ERK detection assay concentration and 1:3 dilutions, 10-point dose response] and appropriate amounts (270 nL) of test compounds were dispensed in a 384-well intermediate plate using an Echo 550 liquid handler. 30 uL/well of RPMI medium 1640-GlutaMAX™—I was added to the intermediate plate and the contents of the intermediate plate (10 uL/well) were then transferred to the 384-well collagen coated cell culture plate, which was incubated at 37° C., 5% CO2 for 2 hours. After removal of medium from the collagen coated cell culture plate, cells were lysed in lysis buffer from Alpha SureFire® Ultra™ Multiplex p-ERK and total ERK assay kit (PerkinElmer MPSU-PTERK) containing Halt™ Protease and Phosphatase inhibitor cocktail (ThermoFisher Scientific 78446) at room temperature with constant shaking at 300 rpm for 30 minutes. The cell lysates were then transferred to an OptiPlate-384 plate (PerkinElmer 6005620), and the phosphorylation of ERK (p-ERK) and total ERK levels were detected by Alpha SureFire® Ultra™ Multiplex p-EEK kit and total ERK assay kit (PerkinElmer MPSU-PTERK) following the manufacturer's protocol. Assay plates were read on a EnVision Multimode Plate Reader (PerkinElmer), and the ratio of p-ERK vs. total ERK in each well was used as the final readout. Dose response curves were analyzed using a 4-parameter logistic model to calculate IC50 values using Spotfire software.

T2 sequence (P01116 with tags, fused parts or gaps isoform P01116-2 G12V): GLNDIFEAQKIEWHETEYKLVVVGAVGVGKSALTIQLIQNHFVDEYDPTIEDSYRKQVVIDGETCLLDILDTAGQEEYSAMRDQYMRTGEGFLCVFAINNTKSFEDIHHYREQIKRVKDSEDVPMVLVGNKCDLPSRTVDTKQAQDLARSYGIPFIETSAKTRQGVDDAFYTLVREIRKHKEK
T1 sequence (P01116 with tags, fused parts or gaps isoform P01116-2 G12D): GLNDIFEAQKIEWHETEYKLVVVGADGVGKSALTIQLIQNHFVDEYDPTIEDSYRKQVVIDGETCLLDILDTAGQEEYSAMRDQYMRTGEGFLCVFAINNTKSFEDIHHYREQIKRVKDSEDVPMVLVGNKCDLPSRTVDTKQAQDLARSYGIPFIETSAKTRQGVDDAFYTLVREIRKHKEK

Row | IC50 (KRAS-G12D) [nM] | IC50 (KRAS-G12V) [nM] | IC50 [1] [nM] | SMILES
1 | 30.5 | 7.6 |  | C[C@H]1CCOCCN1c1nc(OC[C@@]23CCCN2C[C@H](F)C3)nc2cc(-c3ccc(F)c4sc(N)c(C#N)c34)c(C(F)(F)F)nc12 [compound 50, 2-amino-7-fluoro-4-(2-(((2R,7aS)-2-fluorotetrahydro-1H-pyrrolizin-7a(5H)-yl)methoxy)-4-((S)-5-methyl-1,4-oxazepan-4-yl)-6-(trifluoromethyl)pyrido[3,2-d]pyrimidin-7-yl)benzo[b]thiophene-3-carbonitrile]
2 | 8.27 | 3.54 | 48.9 | N#Cc1c(N)sc2c(F)ccc(-c3c(Br)cc4c(N5CCCOCC5)nc(OC[C@@]56CCCN5C[C@H](F)C6)nc4c3F)c12 [compound 37, 2-amino-4-(6-bromo-8-fluoro-2-(((2R,7aS)-2-fluorotetrahydro-1H-pyrrolizin-7a(5H)-yl)methoxy)-4-(1,4-oxazepan-4-yl)quinazolin-7-yl)-7-fluorobenzo[b]thiophene-3-carbonitrile]
3 | 6.32 | 6.18 | 154 | CCC1CCOCCN1c1nc(OC[C@@]23CCCN2C[C@H](F)C3)nc2c(F)c(-c3ccc(F)c4sc(N)c(C#N)c34)c(Cl)cc12 (stereo partly drawn) [compound 14, 2-amino-4-(6-chloro-4-(5-ethyl-1,4-oxazepan-4-yl)-8-fluoro-2-(((2R,7aS)-2-fluorotetrahydro-1H-pyrrolizin-7a(5H)-yl)methoxy)quinazo-lin-7-yl)-7-fluorobenzo[b]thio-phene-3-carbonitrile]
4 | 477 | 160 |  | C[C@H]1CCOCCN1c1nc(OC[C@@]23CCCN2C[C@H](F)C3)nc2c(F)c(-c3ccc(F)c4sc(N)c(C#N)c34)ccc12 [compound 49, 2-amino-7-fluoro-4-(8-fluoro-2-(((2R,7aS)-2-fluorotetrahydro-1H-pyrrolizin-7a(5H)-yl)methoxy)-4-((S)-5-methyl-1,4-oxazepan-4-yl)quinazolin-7-yl)benzo[b]thiophene-3-carbonitrile]
5 | 23.7 | 4.52 |  | N#Cc1c(N)sc2c(F)ccc(-c3c(C(F)(F)F)cc4c(N5CC6COC(C6)C5)nc(OC[C@@]56CCCN5C[C@H](F)C6)nc4c3F)c12 (stereo partly drawn) [compound 51, 4-(4-((1R,5S)-6-oxa-3-azabicyclo[3.2.1]octan-3-yl)-8-fluoro-2-(((2R,7aS)-2-fluorotetrahydro-1H-pyrrolizin-7a(5H)-yl)methoxy)-6-(trifluoromethyl)quinazo-lin-7-yl)-2-amino-7-fluorobenzo[b]thiophene-3-carbonitrile]
6 | 972 | 84.7 |  | N#Cc1c(N)sc2c(F)ccc(-c3c(C(F)(F)F)cc4c(N5CCC6(C5)CC6(F)F)nc(OC[C@@]56CCCN5C[C@H](F)C6)nc4c3F)c12 (stereo partly drawn) [compound 53, 2-amino-4-(4-(1,1-difluoro-5-azaspiro[2.4]heptan-5-yl)-8-fluoro-2-(((2R,7aS)-2-fluorotetrahydro-1H-pyrrolizin-7a(5H)-yl)methoxy)-6-(trifluoromethyl)quinazo-lin-7-yl)-7-fluorobenzo[b]thiophene-3-carbonitrile]
7 | 927 | 91.8 |  | Cc1cc(N)nc(-c2c(Cl)cc3c(N4CCOCC(F)(F)C4)nc(OC[C@@]45CCCN4C[C@H](F)C5)nc3c2F)c1C(F)(F)F [compound 43, 6-(6-chloro-4-(6,6-difluoro-1,4-oxazepan-4-yl)-8-fluoro-2-(((2R,7aS)-2-fluorotetrahydro-1H-pyrrolizin-7a(5H)-yl)methoxy)quinazolin-7-yl)-4-methyl-5-(trifluoromethyl)pyridin-2-amine]
8 | 210 | 43.1 |  | N#Cc1c(N)sc2c(F)ccc(-c3c(C(F)(F)F)cc4c(N5C[C@H]6CC[C@H]6C5)nc(OC[C@@]56CCCN5C[C@H](F)C6)nc4c3F)c12 [compound 52, 4-(4-((1R,5S)-3-azabicyclo[3.2.0]heptan-3-yl)-8-fluoro-2-(((2R,7aS)-2-fluorotetrahydro-1H-pyrrolizin-7a(5H)-yl)methoxy)-6-(trifluoromethyl)quinazo-lin-7-yl)-2-amino-7-fluorobenzo[b]thiophene-3-carbonitrile]
9 | 70.9 | 8.89 |  | N#Cc1c(N)sc2c(F)ccc(-c3c(Cl)cc4c(N5CCOCC5)nc(OC[C@@]56CCCN5C[C@H](F)C6)nc4c3F)c12 [compound 48, 2-amino-4-(6-chloro-8-fluoro-2-(((2R,7aS)-2-fluorotetrahydro-1H-pyrrolizin-7a(5H)-yl)methoxy)-4-morpholinoquinazolin-7-yl)-7-fluorobenzo[b]thiophene-3-carbonitrile]
10 | 23.4 |  |  | N#Cc1c(N)sc2c(F)ccc(-c3c(Cl)cc4c(N5C6COCC5C6)nc(OC[C@@]56CCCN5C[C@H](F)C6)nc4c3F)c12 [compound 47, 4-(4-(3-oxa-6-azabicyclo[3.1.1]heptan-6-yl)-6-chloro-8-fluoro-2-(((2R,7aS)-2-fluorotetrahydro-1H-pyrrolizin-7a(5H)-yl)methoxy)quinazolin-7-yl)-2-amino-7-fluorobenzo[b]thiophene-3-carbonitrile]
11 | 40.9 | 8.9 |  | N#Cc1c(N)sc2c(F)ccc(-c3cc4nc(OC[C@@]56CCCN5C[C@H](F)C6)nc(N5CCCOCC5)c4nc3C(F)(F)F)c12 [Ex. 46, 2-amino-7-fluoro-4-(2-(((2R,7aS)-2-fluorotetrahydro-1H-pyrrolizin-7a(5H)-yl)methoxy)-4-(1,4-oxazepan-4-yl)-6-(trifluoromethyl)pyrido[3,2-d]pyrimidin-7-yl)benzo[b]thiophene-3-carbonitrile]
12 | 273 | 59.1 |  | Cc1cc(N)nc(-c2c(Cl)cc3c(N4CCCSCC4)nc(OC[C@@]45CCCN4C[C@H](F)C5)nc3c2F)c1C(F)(F)F [compound 42, 6-(6-chloro-8-fluoro-2-(((2R,7aS)-2-fluorotetrahydro-1H-pyrrolizin-7a(5H)-yl)methoxy)-4-(1,4-thiazepan-4-yl)quinazolin-7-yl)-4-methyl-5-(trifluoromethyl)pyridin-2-amine]
